Data from patent publication US4937235A, “3- or 4-substituted oxotremorine derivatives” (American Cyanamid Company, priority 1989, dated 1990).
Structures can show the parent of a compound that is named as a salt.

How the values were obtained:
SDAT patients = conditions: cited from earlier work
aged monkey = conditions: aged monkeys; cited from earlier work
[1] = biological target: muscarinic cholinergic receptor; assay: [3H]-Cis-methyldioxolane (3H-CD) Binding Assay (High Affinity); conditions: rat cerebral cortex, 1.0 nM 3H-CD, 25° C., 120 minutes, pH 7.4
[2] = biological target: muscarinic cholinergic receptor; assay: [3H] Quinuclidinyl Benzilate (3H-QNB) Binding Assay; set-up: species or system rat; conditions: pH 7.4
[3] = rat cerebral cortex, 0.25 nM 3H-QNB, 25° C., 120 minutes

Row | SMILES | improvement compared to physostigmine (SDAT patients) | improvement in performance (aged monkey) | IC50 [1] [µM] | IC50 [2] [µM] | IC50 [2, 3] [µM]
1 | COC(=O)C1=CCCN(C)C1 [arecoline] | more-consistent improvement when compared to the anticholinesterase inhibitor physostigmine | significant improvement in performance |  |  | 
2 | O=C1CCCN1CC#CCN1CCCC1 [oxotremorine] |  | significant improvement in performance |  |  | 
3 | CC(=O)O[C@H]1CCN(CC#CCN2CCCC2)C1=O [(S)-3-(Acetyloxy)-1-[4-(1-pyrrolidinyl)-2-butynyl]-2-pyrrolidinone] |  |  | 0.152 | 122 | 
4 | O=C1CCCN1CC#CCN1CCCCC1 [1-[4-(1-Piperidinyl)-2-butynyl]-2-pyrrolidinone, reference compound] |  |  | 0.077 | 2 | 
5 | CC(C)(C)[Si](C)(C)O[C@H]1CC(=O)N(CC#CCN2CCCC2)C1 [(S)-4-[[(1,1-Dimethylethyl)dimethylsilyl]oxy]-1-[4-(1-pyrrolidinyl)-2-butynyl]-2-pyrrolidinone] |  |  | 9.57 | 23 | 
6 | CC(=O)O[C@@H]1CC(=O)N(CC#CCN2CCCC2)C1 [(R)-4-(Acetyloxy)-1-[4-(1-pyrrolidinyl)-2-butynyl]-2-pyrrolidinone] |  |  | 0.914 | 46 | 
7 | O=C(O[C@@H]1CCN(CC#CCN2CCCCC2)C1=O)c1ccc([N+](=O)[O-])cc1 [(R)-3-[(4-Nitrobenzoyl)oxy]-1-[4-(1-piperidinyl)-2-butynyl]-2-pyrrolidinone] |  |  | 0.937 |  | 43
8 | COC1CCN(CC#CCN(C)C(C)=O)C1 (racemic) [(Racemic)-N-[4-(3-Methoxy-1-pyrrolidinyl)-2-butynyl]-N-methyl acetamide] |  |  | 1.37 | 377 | 
9 | CN(C)CC#CCN1CC[C@@H](OC(=O)c2ccc([N+](=O)[O-])cc2)C1=O [(R)-1-[4-(Dimethylamino)-2-butynyl]-3-[(4-nitrobenzoyl)oxy]-2-pyrrolidinone] |  |  | 5.01 |  | 113
10 | CC(=O)OC1CCN(CC#CCN(C)C(C)=O)C1 (racemic) [(Racemic)-N-[4-(3-(Acetyloxy)-1-pyrrolidinyl]-2-butynyl]-N-methyl acetamide, (Racemic)-N-[4-[3-(Acetyloxy)-1-pyrrolidinyl]-2-butynyl]-N-methyl acetamide] |  |  | 5.46 | 1930 | 
11 | CN(C)CC#CCN1CC[C@@H](S)C1=O [(R)-1-[4-(Dimethylamino)-2-butynyl]-3-mercapto-2-pyrrolidinone, monohydrochloride] |  |  | 0.076 | 31 | 
